The source of these data is US20150038545A1, “HYDROXYPHENYL PYRROLE COMPOUNDS CONTAINING AN HYDROXAMIC ACID AS HDAC INHIBITORS AND MEDICINAL APPLICATIONS THEREOF” (UNIVERSIDAD DEL PAÍS VASCO, priority 2011, published 2015).

As a reminder, the IC50 is the concentration needed to halve the response being measured.

The test system of experiment [1] is NCI-N87. Nature of the experiment: Cancer cell growth inhibition (CellTiter-Glo), NCI-N87. Type of experiment: cell-based, Human. The following applies: Homo sapiens; Gastric Cancer, NCI-N87, 72 h treatment. The protocol:
(§1) Cell culture-based assays were used to evaluate the ability of compounds of the invention to inhibit cancer cell growth.
(§2) Cells were obtained from the American Type Culture Collection (ATCC). Cells were cultured at 37° C. with 5% CO2 in the appropriate growth medium (see table below), and harvested respectively during the logarithmic growth period and counted with hemocytometer. The cell viability was examined by trypan blue exclusion. Cell concentrations were adjusted to 5.56×10^4 cells/ml with respective medium.
(§3) Stock solutions of test compounds and positive drugs Doxorubicin (Zhejiang, Haizheng, China), Cisplatin (Nanjing Zhiyao, China) and Mitomycin (Zhejiang, Haizheng, China) were prepared in dimethyl sulphoxide (DMSO) or PBS at 20 mM.
(§4) In order to determine the IC50 for each compound, experiments were carried out in 96-well plates and the cell lines seeded at a density of 5,000 cells/well. […] All treatments were performed in triplicate. 10 μl of drug solution was added to each well and incubated for 72 hours. At the end of the incubation, 100 μl of the CellTiter-Glo Reagent were added to each well and the contents were mixed for 2 munites on an orbital shaker to induce cell lysis. The plate was incubated at room temperature for 10 minutes to stabilize luminiscent signal, and luminiscent was recorded. […] In order to calculate IC50 values, dose-responsive curves were fitted using nonlinear regression model with a sigmoidal dose response.
In general terms: ATP-based viability assays read luminescence as a measure of living cells.

In experiment [2] the test system is A375. Nature of the experiment: Cancer cell growth inhibition (CellTiter-Glo), A375. Type of experiment: cell-based, Human. As to conditions: Homo sapiens, A-375; Melanoma, A375, 72 h treatment. How it is done: as §1, §2, §3, §4
Experiment [3] deals with Hep3B. Nature of the experiment: Cancer cell growth inhibition (CellTiter-Glo), Hep3B. The class given is cell-based, Human. As to conditions: Homo sapiens, Liver Cancer, 72 h treatment. The protocol:
as §1, §2, §3, §4

The test system of experiment [4] is Bx-PC-3. Nature of the experiment: Cancer cell growth inhibition (CellTiter-Glo), Bx-PC-3. The class given is cell-based, Human. As to conditions: Homo sapiens, BXPC-3; Pancreatic Cancer, Bx-PC-3, 72 h treatment. The protocol: as §1, §2, §3, §4
The subject of experiment [5] is MIAPaCa-2. Description: Cancer cell growth inhibition (CellTiter-Glo), MIAPaCa-2. The class given is cell-based. The following applies: Homo sapiens, MIA PaCa-2; Pancreatic Cancer, MIAPaCa-2, 72 h treatment. The protocol: as §1, §2, §3, §4
The test system of experiment [6] is SW620. Nature of the experiment: Cancer cell growth inhibition (CellTiter-Glo), SW620. The class given is cell-based. The following applies: Homo sapiens, SW-620; Colorectal Cancer, SW620, 72 h treatment. The protocol: as §1, §2, §3, §4

Consider `O=C(CCCCCNC(=O)c1[nH]c(-c2ccccc2)cc1-c1ccc(O)cc1)NO` [Example 1, N-(6-(hydroxyamino)-6-oxohexyl)-3-(4-hydroxyphenyl)-5-phenyl-1H-pyrrole-2-carboxamide], for which the IC50 in experiment [1] amounted to 1 µM; in experiment [2], 2.05 µM; in experiment [3], 1.61 µM; in experiment [4], 2.68 µM; in experiment [5] it was 2.75 µM; in experiment [6], 1.31 µM.

With `O=C(CCCCCNC(=O)c1[nH]c(-c2ccc(O)cc2)cc1-c1ccoc1)NO` [Example 5, 3-(3-furyl)-N-(5-(hydroxycarbamoyl)pentyl)-5-(4-hydroxy-phenyl)-1H-pyrrole-2-carboxamide], the IC50 is 0.16 µM in experiment [1]; 3.64 µM in experiment [2]; 1.01 µM in experiment [3]; 2.42 µM in experiment [4]; 1.59 µM in experiment [5]; 0.3 µM in experiment [6].

Regarding `O=C(CCCCCNC(=O)c1[nH]c(-c2ccc(O)cc2)cc1-c1ccccc1)NO` [Example 2, N-(6-(hydroxyamino)-6-oxohexyl)-5-(4-hydroxyphenyl)-3-phenyl-1H-pyrrole-2-carboxamide], the IC50 in experiment [1] came out at 1.24 µM; in experiment [2] it was 4.07 µM; in experiment [3] it was 1.6 µM; in experiment [4], 4.27 µM; in experiment [5] it was 4.08 µM; in experiment [6] it was 1.48 µM.

With `O=C(CCCCCNC(=O)c1[nH]c(-c2ccc(O)cc2)cc1-c1ccsc1)NO` [Example 6, N-(5-(hydroxycarbamoyl)pentyl)-5-(4-hydroxyphenyl)-3-(3-thienyl)-1H-pyrrole-2-carboxamide], the IC50 turned out to be 0.48 µM in experiment [1]; 3.2 µM in experiment [2]; 0.89 µM in experiment [3]; 2.91 µM in experiment [4]; 2.49 µM in experiment [5]; 0.67 µM in experiment [6].
